The values that follow are results of earlier work, collected in US20110177137A1, “NOVEL DOSAGE FORM OF PALIPERIDONE AND PROCESS FOR PREPARING THE SAME” (INTAS PHARMACEUTICALS LIMITED, priority 2008, published 2011).

For `Cc1nc2n(c(=O)c1CCN1CCC(c3noc4cc(F)ccc34)CC1)CCCC2O` (stereo not drawn) [Paliperidone], where the note is “0.1 N HCl”, the “solubility in 0.1 N HCl” value was “soluble”. Also, the “solubility in methyl chloride” value (methyl chloride) is “partly soluble”. The solubility in water result (water) is listed as “insoluble”.
